Structures can show the parent of a compound that is named as a salt.
Target: T1, human ether-a-go-go-related gene (hERG) channel (Homo sapiens, UniProt Q12809)
T1 construct: gene KCNH2
Assay: whole-cell patch clamp, hERG tail current in HEK-293 cells
Type: cell-based
Description: whole-cell patch clamp, hERG tail current in HEK-293 cells on human ether-a-go-go-related gene (hERG) channel | etomidate inhibited the tail current of the hERG in a concentration-dependent manner | The etomidate analogue, ET-26 HCl, inhibited the hERG current in a similar concentration-dependent manner

T1 sequence (Q12809 whole entry): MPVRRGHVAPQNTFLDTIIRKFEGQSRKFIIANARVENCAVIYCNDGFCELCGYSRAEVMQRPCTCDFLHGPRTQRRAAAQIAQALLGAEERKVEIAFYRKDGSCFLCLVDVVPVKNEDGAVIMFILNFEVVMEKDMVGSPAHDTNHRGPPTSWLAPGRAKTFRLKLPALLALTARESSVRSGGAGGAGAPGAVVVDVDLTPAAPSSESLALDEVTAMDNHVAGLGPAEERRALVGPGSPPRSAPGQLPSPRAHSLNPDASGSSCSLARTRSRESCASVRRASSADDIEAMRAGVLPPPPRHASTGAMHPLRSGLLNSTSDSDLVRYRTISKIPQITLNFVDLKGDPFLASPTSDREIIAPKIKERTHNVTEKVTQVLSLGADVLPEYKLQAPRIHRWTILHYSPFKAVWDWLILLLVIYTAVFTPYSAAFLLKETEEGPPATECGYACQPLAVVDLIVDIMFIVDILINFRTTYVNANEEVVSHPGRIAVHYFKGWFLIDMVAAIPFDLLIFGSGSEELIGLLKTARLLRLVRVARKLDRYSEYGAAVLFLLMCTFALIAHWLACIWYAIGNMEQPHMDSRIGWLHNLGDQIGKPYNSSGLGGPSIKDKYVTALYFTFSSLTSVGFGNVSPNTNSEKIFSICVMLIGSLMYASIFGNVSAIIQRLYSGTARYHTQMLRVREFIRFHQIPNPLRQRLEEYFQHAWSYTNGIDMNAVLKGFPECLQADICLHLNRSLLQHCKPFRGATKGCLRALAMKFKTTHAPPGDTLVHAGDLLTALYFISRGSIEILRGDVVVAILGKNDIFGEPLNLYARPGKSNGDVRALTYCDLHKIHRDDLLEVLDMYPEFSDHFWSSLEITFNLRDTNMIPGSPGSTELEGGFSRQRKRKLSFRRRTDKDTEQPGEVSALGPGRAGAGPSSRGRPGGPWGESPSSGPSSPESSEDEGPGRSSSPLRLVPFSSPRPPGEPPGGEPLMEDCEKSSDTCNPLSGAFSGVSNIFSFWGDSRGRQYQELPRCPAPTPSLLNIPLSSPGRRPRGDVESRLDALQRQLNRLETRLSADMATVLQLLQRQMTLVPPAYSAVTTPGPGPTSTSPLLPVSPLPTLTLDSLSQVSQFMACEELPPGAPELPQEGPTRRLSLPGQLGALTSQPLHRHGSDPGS

Structure (SMILES)	IC50 [µM]
CCOC(=O)c1cncn1[C@H](C)c1ccccc1 [etomidate]	264
COCCOC(=O)c1cncn1[C@H](C)c1ccccc1 [ET-26 HCl, (R)-2-methoxyethyl1-(1-phenylethyl)-1H-imidazole-5-carboxylate hydrochloride]	743

From PMC5764323, “The etomidate analog ET-26 HCl retains superior myocardial performance: Comparisons with etomidate in vivo and in vitro” (PLoS ONE, 2018)
